Assay results reported in US10858305B2, “Perillyl alcohol-3-bromopyruvate conjugate and methods of treating cancer” (NeOnc Technologies, Inc., priority 2016, dated 2020).
Entries after “also recorded” stand apart in the source; their conditions may differ. Blank lines part the entries; values can stand above or below the compound they belong to.

Columns and labels:
Assay type in all cases: cell-based, human
tumor cell lines = assay: cells; conditions: Homo sapiens; MTT, 24 hours; POH alone; read-out: concentration required to reach IC50
Description: Different tumor cell lines were treated with 3-BP mixed with POH, and the effects were compared to the effects of NEO218, as well as to 3-BP alone. The cells were treated for 24 hours, and then the MTT assay was conducted to measure cell viability.

[1] = tested on: MDA-MB-231 breast cancer cells; assay: LDH release assay in MDA-MB-231 / breast cancer cell lines; conditions: breast cancer cell lines, 24 hours
Description: (§1) (A) MTT assay was performed after 24 hours. […] (B) LDH assay was performed after […]. LDH release by untreated cells was set to 1. Relative fold increase is shown (n=3).
(§2) (A) MTT assay was performed after 24 hours. Viability of untreated cells was set at 100% (data points are averages of 2 experiments). (B) LDH assay was performed after 24 hours. LDH release by untreated cells was set to 1. Relative fold increase is shown (averages from 2 experiments). (C) Representative photos show typical colony formation after initial 48 hours of drug treatment. In all cases of combination treatment with 3-BP mixed with […] (3-BP+POH), the indicated concentrations refer to each individual drugs, i.e., 100 μM 3-BP+POH means that 100 μM 3-BP was combined with 100 μM POH.
The capacity for rapid cell killing by NEO218 relative to 3-BP, POH and 3-BP+POH was evaluated via LDH assay, where LDH release is used as a proxy for cell death.
In FIG. 4, Panels (a) and (b), show the results of treating breast cancer cell lines with increasing concentrations of NEO218, 3-BP, or 3-BP mixed with POH. […] In all cases a-d, the release of LDH (as a marker of cell death) was measured after 24 hours.
Depending on the cell line, 2000 to 4000 cells per well were seeded in a volume of 50 μL into a 96-well plate. The next day, drugs ere added in an additional 50 μL of medium. At different time points (usually after 24 hours of incubation), 50 μL medium was removed and processed with the LDH Cytotoxicity Assay Kit (Thermo Fisher Scientific, Waltham, Mass.) according to the manufacturer's instructions. This kit measures extracellular LDH in culture medium using an enzymatic reaction that results in a red formazan product, which can be measured spectrophotometrically. The absorbance was measured at 490 and 680 nm. All LDH levels were normalized to untreated controls and presented as fold change of the controls.

[2] = tested on: tumor cells (two cell lines, incl. MCF7/Dox); assay: Colony formation assay (CFA), 24 hours drug exposure (FIG. 5); conditions: Homo sapiens, MCF7-DOX, colonies after ten to fifteen days, read-out: IC50 (cell survival and colony formation)
Description: The effect of NEO218 on tumor cell survival and colony formation relative to 3-BP, POH and 3-BP+POH was evaluated via the colony formation assay (CFA). Six hundred cells per culture well were seeded and exposed to increasing concentrations of NEO218, 3-BP, a mix of 3-BP+POH, or POH alone. After 24 hours, all drugs were removed from cells and fresh culture medium was added. Ten to fifteen days later, the surviving cells had formed colonies of descendants, which were stained and counted.

[3] = tested on: all cell types (breast, brain, ovary, colon cancer cell lines); assay: Summary of cytotoxicity over MTT, LDH and colony formation assays (FIGS. 2-5); conditions: all cells
Description: The tumor cell-killing potency of NEO218 was characterized by in vitro, short-term MTT assays (measuring viability of cells via determination of metabolic activity), LDH assays (measuring the release of lactate dehydrogenase as an indicator of leaky cell membranes, which are indicative of dying cells), and colony-formation assays (CFA, which determine long-term survival of drug-treated cells and their ability to spawn a colony of descendants). Several established cell lines derived from cancers of the breast were used as target cells (including MDA-MB-231; MDA-MB-468; T47D; MCF7; MCF7/Dox; BTB12), brain (T98G; U251), ovary (A2780), and colon (HCT116). In all cases, cells in culture were exposed to increasing concentrations of agents for 24 or 48 hours.

MDA-MB-231 cells = assay: MTT short-term toxicity assay in MDA-MB-231 cells; conditions: MDA-MB-231
Description: as §1, §2
Methylthiazoletetrazolium (MTT) assays were performed as described earlier.

[4] = tested on: HCT116 colon cancer cells; assay: Cellular ATP content assay; conditions: 100 nM rotenone in glucose-free medium
Description: HCT116 cells were treated with 40 μM 3-BP or NEO218. As a point of reference, cells were also exposed to 100 nM rotenone in glucose-free medium. ATP levels were determined after 3 and 6 hours. ATP levels in untreated cells were set at 100% (corresponding to 26.6 nmol per one million cells).
HCT116 colon cancer cells were treated cells with: NEO218, 3-BP; rotenone (a mitochondrial poison that blocks the respiratory chain); medium without glucose (“no gluc”; in order to shut down glycolysis); and, rotenone in combination with absent glucose (to cease all intracellular ATP production). After 3 hours of treatment, a commercially available ATP detection assay kit was employed to determine the relative levels of ATP present.
ATP content of cells was measured with the ATP Colorimetric/Fluorometric Assay kit (Biovision Inc., Milpitas, Calif.), which utilizes the phosphorylation of glycerol to generate a product that is quantified by colorimetry at 570 nm. Approximately 1×10^6 cells were cultured in 10-cm tissue culture plates, exposed to drug treatment for various time periods, and then processed as per manufacturer's instructions. All ATP levels were normalized to untreated controls and presented as percentage of controls.

[5] = tested on: cleaved caspase 7, cleaved PARP, γ-H2AX in MCF7, MDA-MB-231 and HCT116 cells; assay: Western blot for apoptosis markers; conditions: STS as positive control
Description: (§3) (A) FACS analysis of HCT116 cells after treatment for 2, 4, or 8 hours with vehicle, 30 μM 3-BP, 30 μM NEO218, or 1 μM staurosporine (STS). […] (B) Western blot analysis of apoptotic markers. In the top section, MDA-MB-231 cells were treated with 30 μM NEO218 or 1 μM STS for various time points. In the lower section, HCT116 cells were treated with the indicated concentrations of 3-BP, NEO218, or STS for 16 hours. In all cases cell lysates were prepared and analyzed for the well-established apoptotic markers cleaved PARP, cleaved (i.e., activated) caspase 7 (cl. C-7), and phosphorylated (i.e., active) H2AX. Actin was used as a loading control. (C) HCT116 cells were pretreated with 50 μM Z-VAD-FMK for one hour, followed by the addition of increasing concentrations of 3-BP or NEO218. Cell viability was determined by MTT assay 24 hours later. Data points are averages from n=3.
The capacity for NEO218 to induce apoptosis was evaluated in a series of experiments. Three different cell lines were treated 3-BP and NEO218. Drug-treated cells were harvested, and cellular lysates were analyzed by Western blot for the presence of the three well-established markers of apoptosis: • cleaved caspase 7 (cl. C7); • cleaved (cl.) vs. full-length (f.l.) PARP; and, • induction of γ-H2AX (which indicates DNA cleavage).
The appearance of cl. C7 and cl. PARP is indicative of ongoing apoptotic processes. In all cases, lysates were also probed for the presence of actin as a control.
Two breast cancer cell lines (MCF7 and MDA-MB-231) and one colon cancer cell line (HCT116) were treated with increasing concentrations of NEO218 or 3-BP. As a control, they were also treated with staurosporine (STS), a known potent inducer of apoptosis. Western blot analyses for the presence of apoptosis markers are shown in the left panels of FIG. 6.
Total cell lysates were analyzed by Western blot analysis as described earlier. Primary antibodies against cleaved caspase 7 and PARP were obtained from Cell Signaling Technology (Danvers, Mass.), and antibodies against actin (C-11) and MCT1 (H-1) were obtained from Santa Cruz Biotechnology (Santa Cruz, Calif.). All antibodies were used according to the manufacturers' recommendations, except that in the case of MCT1 detection, the boiling step was omitted before loading the samples onto the polyacrylamide gel. All immunoblots were repeated at least once to confirm the results.

HCT116 cells = assay: FACS analysis for annexin V and propidium iodide; conditions: 2, 4 or 8 hours of treatment
Description: as §3
In the absence of indications that apoptotic mechanisms played a significant role in cell death induced by NEO218, necrosis was investigated as a potential key mechanism. The distinction between apoptotic and necrotic cell death was made by measuring annexin V staining (a marker of apoptosis) and PI (propidium iodide) staining (a marker of necrosis) of drug-treated cells, in comparison to non-drug-treated cells (as a control). Measurements of annexin V and PI were done by FACS analysis after 2, 4, or 8 hours of treatment. Cells were treated with NEO218, 3-BP, and staurosporine (individually), and incorporation of propidium iodide (PI, a marker of necrotic cell death) or annexin V (a marker for apoptosis) was determined by fluorescence-activated cell sorting.
The results are organized in FIG. 8 as follows: no treatment (top row), 3-BP (second row), NEO218 (third row), and staurosporine (bottom row).
Characterization of cell death was performed by flow cytometry using the Alexa Fluor® 488 Annexin V/Dead Cell Apoptosis kit (Thermo Fisher Scientific). This kit contains recombinant, green fluorophore-conjugated annexin V, which reacts with apoptotic cells, and DNA-binding, red-fluorescent propidium iodide (PI), which is impermeant to live and apoptotic cells, but stains dead cells. The different cell populations can be distinguished by green fluorescence (apoptotic cells), red fluorescence (necrotic/dead cells), and no fluorescence (live cells) during flow cytometry with 488 nm laser excitation. Control or drug-treated cells were processed as per manufacturer's instructions, followed by flow cytometry of 10,000 cells per point with an LSR II (BD Biosciences, San Jose, Calif.) at the USC Flow Cytometry Core Facility.

IC50 (tumor cell lines): ≥ 500 µM
Structure (SMILES): C=C(C)[C@@H]1CC=C(CO)CC1 [POH, perillyl alcohol]
toxic potency by LDH release [1]: requires fairly high concentrations to achieve cell killing | IC50 [2]: > 1000 µM | IC50 of POH alone [3]: several hundred | IC50 of POH alone (MDA-MB-231 cells): approaching the millimolar range

Structure (SMILES): C=C(C)[C@H]1Cc2c(ccc3c2O[C@@H]2COc4cc(OC)c(OC)cc4[C@@H]2C3=O)O1 [rotenone]
ATP level ([4]; after six hours): about 10 % of normal | ATP level ([4]; within the first 3 hours, untreated = 100%): < 25%

Structure (SMILES): CN[C@@H]1C[C@H]2O[C@@](C)([C@@H]1OC)n1c3ccccc3c3c4c(c5c6ccccc6n2c5c31)C(=O)NC4 [staurosporine]
induction of apoptosis markers (cleaved PARP, cleaved caspase 7, γ-H2AX) [5]: striking induction of all 3 markers of apoptosis | induction of apoptosis markers (cleaved PARP, cleaved caspase 7, γ-H2AX) ([5]; listed as STS): triggered pronounced cleavage of PARP, activation of C-7; also recorded: prominent appearance of apoptotic markers | incorporation of PI (necrosis) versus annexin V (apoptosis) (HCT116 cells): incorporation of annexin V, but very little PI | incorporation of PI (necrosis) versus annexin V (apoptosis) (HCT116 cells; listed as STS): moved from the lower left quadrant (=fully viable cells) to the lower right quadrant (=annexin V-positive cells)
